This passage reports Ki results from patent publication US20040072839A1, “1-Phenylalkylpiperazines” (priority 2002, published 2004).

pKi: −log10 of the molar value.

This experiment concerns the target T1, human 5-HT1A-serotonergic receptor (Homo sapiens, UniProt P08908).
T1 construct: expressed in transfected cells; host or cells: HeLa (human), stably transfected; membrane preparation
T1 sequence (P08908 1-422): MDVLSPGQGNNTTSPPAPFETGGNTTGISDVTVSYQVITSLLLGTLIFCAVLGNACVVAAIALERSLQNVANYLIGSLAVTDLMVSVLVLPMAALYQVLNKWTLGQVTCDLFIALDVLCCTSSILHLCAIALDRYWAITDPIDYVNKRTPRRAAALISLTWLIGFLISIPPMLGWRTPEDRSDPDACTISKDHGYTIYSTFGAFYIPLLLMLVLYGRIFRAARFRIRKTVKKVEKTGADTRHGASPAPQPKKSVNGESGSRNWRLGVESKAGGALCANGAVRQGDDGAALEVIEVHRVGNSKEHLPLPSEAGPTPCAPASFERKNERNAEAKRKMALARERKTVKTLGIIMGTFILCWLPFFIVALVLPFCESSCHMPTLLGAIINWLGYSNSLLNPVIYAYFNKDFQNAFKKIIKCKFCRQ
Description: Radioligand binding to recombinant 5-HT1A receptors ([3H]8-OH-DPAT, HeLa cell membranes). As to conditions: 1 nM [3H]8-OH-DPAT; Ki from IC50 by Cheng & Prusoff; read-out: Ki, binding affinity for 5-HT1A receptors. The procedure: Genomic clone coding for the human 5-HT1A-serotonergic receptor was stably transfected in a human cell line (HeLa). HeLa cells were grown as monolayers in Dulbecco's modified Eagle medium (DMEM), containing 10% foetal bovine serum, gentamycin (0.1 mg/ml) and 5% carbon dioxide, at 37° C. The cells were detached from the growth flask at 95% confluence by a cell scraper and were lysed in cold 5 mM Tris and 5 mM EDTA buffer (pH 7.4). The homogenates were centrifuged at 40000×g×20 minutes and the pellets were resuspended in a small volume of cold 5 mM Tris and 5 mM EDTA buffer (pH 7.4) and immediately frozen and stored at −70° C. until use. On the day of experiment, the cell membranes were resuspended in incubation buffer: 50 mM Tris HCl (pH 7.4), 2.5 mM MgCl2, […] (Fargin et al., Nature 335, 358-360, 1988). The membranes were incubated in a final volume of 1 ml for 30 minutes at 30° C. with 1 nM [^3H]8-OH-DPAT, in the absence or presence of the test compounds. Non-specific binding was determined in the presence of 10 μM 5-HT. Incubation was stopped by addition of cold Tris-HC1 buffer and rapid filtration through a 0.2%-polyethyleneimine-pretreated Whatman-GF/B or Schleicher-&-Schuell-GF52 filter.
The affinities of the tested compounds were evaluated as inhibition of specific binding of the radioligand to 5-HT1A receptors (IC50) by using the non-linear curve-fitting program Allfit (De Lean et al., Am. J. Physiol. 235, E97-E102 (1978). The IC50 value was converted to an affinity constant (Ki) by the equation of Cheng & Prusoff (Cheng Y. C., Prusoff W. H., Biochem. Pharmacol. 22, 3099-3108 (1973)).
The pKi is −log10 of the Ki, conventionally taken in molar units. Regarding `N#Cc1ccccc1[C@@H](CCN1CCN(c2cccc3c2OCCO3)CC1)[C@@H](O)C1CCCCC1` (racemic) [Example 14, (RS,SR)-1-[3-(2-Cyanophenyl)-4-cyclohexyl-4-hydroxybutyl]-4-[5-(2,3-dihydro-1,4-benzodioxinyl)]piperazine], the pKi was 9.40.

Regarding `N#Cc1ccccc1C(CCN1CCN(c2cccc3c2OCCO3)CC1)C(O)C1CCCCC1` (racemic) [Example 14a, (RS)-1-[3-(2-Cyanophenyl)-4-cyclohexyl-4-hydroxybutyl]-4-[5-(2,3-dihydro-1,4-benzodioxinyl)]piperazine], the pKi is 9.06.

On to `N#Cc1ccccc1C(CCN1CCN(c2cccc3c2OCCO3)CC1)C(O)C1CCCCC1` (racemic) [Example 14b, (SR)-1-[3-(2-Cyanophenyl)-4-cyclohexyl-4-hydroxybutyl]-4-[5-(2,3-dihydro-1,4-benzodioxinyl)]piperazine], for which the pKi is 9.02. Take `COC(=O)O[C@@H](C1CCCCC1)[C@H](CCN1CCN(c2ccccc2OC)CC1)c1ccccc1F` (racemic) [Example 46, (RS,SR) 1-[4-Cyclohexyl-3-(2-fluorophenyl)-4-methoxycarbonyloxybutyl]-4-(2-methoxyphenyl)piperazine]: the pKi was 9.14. Then `COC(C1CCCCC1)C(CCN1CCN(c2ccccc2OCC(F)(F)F)CC1)c1ccccc1F` (centres unmarked) [Example 1, 1-[4-Cyclohexyl-3-(2-fluorophenyl)-4-methoxybutyl]-4-[2-(2,2,2-trifluoroethoxy)phenyl]piperazine], with 8.84. Then `CC(O)C(CCN1CCN(c2cccc3c2OCCO3)CC1)c1ccccc1OC(F)(F)F` (centres unmarked) [Example 5, 1-[5-(2,3-Dihydro-1,4-benzodioxinyl)]-4-[4-hydroxy-3-(2-trifluoromethoxyphenyl)pentyl]piperazine], with 8.08; and `CCC(O)C(CCN1CCN(c2cccc3c2OCCO3)CC1)c1ccccc1OC(F)(F)F` (centres unmarked) [Example 6, 1-[5-(2,3-Dihydro-1,4-benzodioxinyl)]-4-[4-hydroxy-3-(2-trifluoromethoxyphenyl)hexyl]piperazine], with 8.44; and `C=CC(O)C(CCN1CCN(c2cccc3c2OCCO3)CC1)c1ccccc1OC(F)(F)F` (centres unmarked) [Example 7, 1-[5-(2,3-Dihydro-1,4-benzodioxinyl)]-4-[4-hydroxy-3-(2-trifluoromethoxyphenyl)hex-5-enyl]piperazine], with 8.14. Next, `C=CC(OC)C(CCN1CCN(c2cccc3c2OCCO3)CC1)c1ccccc1OC(F)(F)F` (centres unmarked) [Example 9, 1-[5-(2,3-Dihydro-1,4-benzodioxinyl)]-4-[4-methoxy-3-(2-trifluoromethoxyphenyl)-5-hexenyl]piperazine]: 8.72; `CCCC(OC)C(CCN1CCN(c2cccc3c2OCCO3)CC1)c1ccccc1` (centres unmarked) [Example 10, 1-[5-(2,3-Dihydro-1,4-benzodioxinyl)]-4-[(4-methoxy-3-phenyl)heptyl]piperazine]: 8.77; `COC(C)C(CCN1CCN(c2cccc3c2OCCO3)CC1)c1ccccc1` (centres unmarked) [Example 11, 1-[5-(2,3-Dihydro-1,4-benzodioxinyl)]-4-[(4-methoxy-3-phenyl)pentyl]piperazine]: 8.44. On to `CCCOC(CCC)C(CCN1CCN(c2cccc3c2OCCO3)CC1)c1ccccc1` (centres unmarked) [Example 12, 1-[5-(2,3-Dihydro-1,4-benzodioxinyl)]-4-[(4-propoxy-3-phenyl)heptyl]piperazine], for which the pKi is 8.52. Next, `N#Cc1ccccc1C(CCN1CCN(c2cccc3c2OCCO3)CC1)C(=O)C1CCCCC1` (centres unmarked) [Example 13, 1-[3-(2-Cyanophenyl)-4-cyclohexyl-4-oxobutyl]-4-[5-(2,3-dihydro-1,4-benzodioxinyl)]piperazine]: 9.28; `COc1cc(F)ccc1N1CCN(CCC(C(=O)C2CCCCC2)c2ccccc2C#N)CC1` (centres unmarked) [Example 15, 1-[3-(2-Cyanophenyl)-4-cyclohexyl-4-oxobutyl]-4-(4-fluoro-2-methoxyphenyl)piperazine]: 8.77.
